Test results as given in PubChem BioAssay (NCI).
“And” between values parts separate entries of the source, which are not always exact repeats. Equal entries are not always repeated.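 Each compound was tested at five concentrations against cells in 96-well plates for 48 hours. TGI denotes the concentration required for complete inhibition of growth.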

What was measured:
Experiment in all cases: NCI anticancer screen, dose series, 48 h
NCI-H23 lung = test system: NCI-H23 lung
SN12C renal = test system: SN12C renal
NCI-H522 lung = test system: NCI-H522 lung
K-562 leukemia = test system: K-562 leukemia
TK-10 renal = test system: TK-10 renal
SK-MEL-5 melanoma = test system: SK-MEL-5 melanoma
A549 NSCLC = test system: A549 NSCLC
HCC-2998 colon = test system: HCC-2998 colon
PC-3 prostate = test system: PC-3 prostate
U251 CNS = test system: U251 CNS
OVCAR-8 ovarian = test system: OVCAR-8 ovarian
HT29 colon = test system: HT29 colon
CAKI-1 renal = test system: CAKI-1 renal
COLO 205 colon = test system: COLO 205 colon
DLD-1 colon = test system: DLD-1 colon
OVCAR-5 ovarian = test system: OVCAR-5 ovarian
MDA-MB-231 breast = test system: MDA-MB-231 breast
NCI-H226 lung = test system: NCI-H226 lung
CCRF-CEM leukemia = test system: CCRF-CEM leukemia
EKVX NSCLC = test system: EKVX NSCLC

SMILES	TGI (NCI-H23 lung)	TGI (SN12C renal)	TGI (NCI-H522 lung)	TGI (K-562 leukemia)	TGI (TK-10 renal)	TGI (SK-MEL-5 melanoma)	TGI (A549 NSCLC)	TGI (HCC-2998 colon)	TGI (PC-3 prostate)	TGI (U251 CNS)	TGI (OVCAR-8 ovarian)	TGI (HT29 colon)	TGI (CAKI-1 renal)	TGI (COLO 205 colon)	TGI (DLD-1 colon)	TGI (OVCAR-5 ovarian)	TGI (MDA-MB-231 breast)	TGI (NCI-H226 lung)	TGI (CCRF-CEM leukemia)	TGI (EKVX NSCLC)
CC(Oc1ccc(Oc2cnc3ccc(Cl)cc3n2)cc1)C(=O)O (stereo not drawn)	> 100 µM	> 100 µM	99.4 µM and > 100 µM	> 100 µM	> 100 µM	> 100 µM	> 100 µM	> 100 µM	> 100 µM	> 100 µM	> 100 µM	> 100 µM	> 100 µM	> 100 µM	> 100 µM	> 100 µM	> 100 µM	> 100 µM and 33.2 µM	> 100 µM	> 100 µM
CC1(C)OC(=S)N(c2ccccc2)C12C=Cc1cc3ccccc3nc1S2 (stereo not drawn)	> 100 µM	> 100 µM	> 100 µM	> 100 µM	> 100 µM	> 100 µM	> 100 µM	> 100 µM	–	> 100 µM	> 100 µM	> 100 µM	–	> 100 µM	97 µM	> 100 µM	–	> 100 µM	> 100 µM	> 100 µM
O=c1cc(-c2ccccc2)[nH]c2cc(F)cc(F)c12	> 100 µM	> 100 µM	35.3 µM	> 100 µM	> 100 µM	> 100 µM	> 100 µM	–	–	> 100 µM	> 100 µM	> 100 µM	> 100 µM	38.9 µM	> 100 µM	> 100 µM	–	80.5 µM	> 100 µM	–
